Measurements taken from patent US3939143A, “1-N-isoserylkanamycins and the production thereof” (Zaidan Hojin Biseibutsu Kagaku Kenkyu Kai, priority 1973, dated 1976).
In brackets after ≈: the same amount, converted by molar mass. Where two headings read alike, the source gives them in different places.

How the values were obtained:
Sarcina lutea PCI 1001 = assay: Minimum inhibitory concentration, serial dilution on nutrient agar; format: cell-based; details: Micrococcus luteus, PCI1001, 18 h, read-out: Minimum Inhibitory Concentration
[1] = test system: Escherichia coli JR66/W677; assay: as above; format: cell-based; details: JR66/W677, 37°C, 18 hours, read-out: Minimum Inhibitory Concentration
[2] = test system: Pseudomonas aeruginosa 99; assay: as above; format: cell-based; details: Pseudomonas aeruginosa, 99, 18 h, read-out: Minimum Inhibitory Concentration
[3] = test system: drug-resistant strains of Escherichia coli and Pseudomonas aeruginosa; assay: antibacterial activity against drug-resistant strains, in words; format: cell-based
[4] = test system: Klebsiella pneumoniae PCI 602; assay: Minimum inhibitory concentration, serial dilution on nutrient agar; format: cell-based; details: read-out: Minimum Inhibitory Concentration
[5] = test system: Escherichia coli LA290 R55; assay: as above; format: cell-based; details: LA290R55, 18 h, read-out: Minimum Inhibitory Concentration
[6] = test system: Escherichia coli LA290 R64; assay: as above; format: cell-based; details: LA290R64, 18 h, read-out: Minimum Inhibitory Concentration
[7] = acute toxicity upon intravenous injection in mice; format: in vivo; details: mouse, in vivo; intravenous injection, mice
[8] = test system: Escherichia coli K-12 ML 1629; assay: Minimum inhibitory concentration, serial dilution on nutrient agar; format: cell-based; details: read-out: Minimum Inhibitory Concentration
Bacillus anthracis = assay: microbe, parasite or virus in culture; format: cell-based; details: 18 h, read-out: Minimum Inhibitory Concentration
[9] = test system: Escherichia coli LA290 R56; assay: Minimum inhibitory concentration, serial dilution on nutrient agar; format: cell-based; details: LA290R56, 18 h, read-out: Minimum Inhibitory Concentration
[10] = test system: Staphylococcus aureus Terajima; assay: as above; format: cell-based; details: read-out: Minimum Inhibitory Concentration
[11] = test system: Pseudomonas aeruginosa No.12; assay: as above; format: cell-based; details: NO.12, 18 h, read-out: Minimum Inhibitory Concentration
[12] = test system: Corynebacterium bovis 1810; assay: as above; format: cell-based; details: read-out: Minimum Inhibitory Concentration
[13] = test system: Klebsiella pneumoniae 22 No. 3038; assay: as above; format: cell-based; details: 22NO.3038, 18 h, read-out: Minimum Inhibitory Concentration
[14] = test system: Bacillus subtilis NRRL B-558; assay: as above; format: cell-based; details: read-out: Minimum Inhibitory Concentration
Proteus vulgaris OX 19 = assay: as above; format: cell-based; details: read-out: Minimum Inhibitory Concentration
Escherichia coli K-12 = assay: as above; format: cell-based; details: read-out: Minimum Inhibitory Concentration
[15] = test system: Shigella dysenteriae JS 11910; assay: as above; format: cell-based; details: JS11910, 18 h, read-out: Minimum Inhibitory Concentration
[16] = test system: Bacillus cereus ATCC 10702; assay: as above; format: cell-based; details: read-out: Minimum Inhibitory Concentration
[17] = test system: Salmonella enteritidis 1891; assay: as above; format: cell-based; details: Salmonella enterica, read-out: Minimum Inhibitory Concentration
[18] = test system: Mycobacterium smegmatis ATCC 607; assay: as above; format: cell-based; details: Mycolicibacterium smegmatis, read-out: Minimum Inhibitory Concentration
[19] = test system: Staphylococcus aureus Smith; assay: as above; format: cell-based; details: read-out: Minimum Inhibitory Concentration
[20] = test system: Bacillus subtilis PCI 219; assay: as above; format: cell-based; details: read-out: Minimum Inhibitory Concentration
Escherichia coli NIHJ = assay: as above; format: cell-based; details: 18 h, read-out: Minimum Inhibitory Concentration
[21] = test system: Staphylococcus aureus FDA 209P; assay: as above; format: cell-based; details: FDA209P, 18 h, read-out: Minimum Inhibitory Concentration
[22] = test system: Escherichia coli K-12 ML 1410; assay: as above; format: cell-based; details: read-out: Minimum Inhibitory Concentration
Salmonella typhosa T-63 = assay: as above; format: cell-based; details: Salmonella enterica, 18 h, read-out: Minimum Inhibitory Concentration
[23] = test system: gram-negative and gram-positive bacteria; assay: antibacterial activity, in words; format: cell-based; details: for antibacterial activity relative to the DL-form (racemic form): optically active L- or D-isoseryl form
Description: (§1) The minimum inhibitory concentrations (mcg/ml) of 1-N-DL-isoserylkanamycin,1-N-DL-isoserylkanamycin B and 1-N-DL-isoseryl-3',4'-dideoxykanamycin B against various microorganisms were determined according to the serial dilution method using nutrient agar medium at 37°C, the estimation being effected after 18 hours incubation. For comparison purposes, the minimum inhibitory concentrations of kanamycin, kanamycin B and 3',4'-dideoxykanamycin B were also determined in the same manner and under the same conditions as mentioned above.
(§2) The antibacterial spectra of 1-N-DL-isoseryl-kanamycin (abbreviated as 1-IS-KM), 1-N-DL-isoseryl-kanamycin B (abbreviated as 1-IS-KMB) and 1-N-DL-isoseryl-3',4'-dideoxykanamycin B (abbreviated as 1-IS-DKB) are shown in the following table together with those of kanamycin (abbreviatedas KM), kanamycin B (abbreviated as KMB) and 3',4'-dideoxykanamycin B (abbreviated as DKB).

Escherichia coli W677 = assay: Minimum inhibitory concentration, serial dilution on nutrient agar; format: cell-based; details: read-out: Minimum Inhibitory Concentration
[24] = test system: Pseudomonas aeruginosa GN315; assay: as above; format: cell-based; details: read-out: Minimum Inhibitory Concentration
[25] = test system: Pseudomonas aeruginosa TI-13; assay: as above; format: cell-based; details: TI13, 37°C, 18 hours
Description: as §1, §2

[26] = test system: Shigella flexneri 4b JS 11811; assay: as above; format: cell-based; details: 4BJS11811, 37°C, 18 hours
Description: as §1, §2

[27] = test system: Escherichia coli K-12 ML 1630; assay: as above; format: cell-based; details: K12ML1630, 37°C, 18 hours
Description: as §1, §2

[28] = test system: Pseudomonas aeruginosa A3; assay: as above; format: cell-based; details: 37°C, 18 hours
Description: as §1, §2

Shigella sonnei JS 11746 = assay: as above; format: cell-based; details: JS11746, 37°C, 18 hours
Description: as §1, §2

[29] = test system: Escherichia coli K-12 ML 1410 R81; assay: as above; format: cell-based; details: 18 h, read-out: Minimum Inhibitory Concentration
mice = assay: acute toxicity upon intravenous injection in mice; format: in vivo; details: optically active L- or D-isoseryl form
[30] = test system: kanamycin-resistant strains; details: phosphotransferase-producing resistant strains; cited from earlier work
[31] = test system: Escherichia coli JR66/W677; details: nucleotidyltransferase-producing resistant strain; cited from earlier work
phosphotransferase = details: phosphorylation of the 3'-hydroxyl group; cited from earlier work
nucleotidyltransferase = details: adenylylation of 2"-hydroxyl group with ATP; cited from earlier work

Structure (SMILES)	MIC (Sarcina lutea PCI 1001)	MIC [1]	MIC [2]	MIC [5]	MIC [6]	MIC (Bacillus anthracis)	MIC [9]	MIC [11]	MIC [13]	MIC [15]	MIC (Escherichia coli NIHJ)	MIC [21]	MIC (Salmonella typhosa T-63)	MIC [25]	MIC [26]	MIC [27]	MIC [28]	MIC (Shigella sonnei JS 11746)	MIC [29]	toxicity relative to the DL-form (mice)	further results
NCC(O)C(=O)N[C@@H]1C[C@H](N)[C@@H](O[C@H]2O[C@H](CN)[C@@H](O)[C@H](O)[C@H]2N)[C@H](O)[C@H]1O[C@H]1O[C@H](CO)[C@@H](O)[C@H](N)[C@H]1O (mixture of isomers) [1-IS-KMB, 1-N-DL-isoserylkanamycin B]	6.25 µg/mL	12.5 µg/mL	6.25 µg/mL	1.56 µg/mL	0.78 µg/mL	< 0.2 µg/mL	0.78 µg/mL	6.25 µg/mL	6.25 µg/mL	6.25 µg/mL	3.13 µg/mL	1.56 µg/mL	0.78 µg/mL	6.25 µg/mL	3.13 µg/mL	3.13 µg/mL	6.25 µg/mL	6.25 µg/mL	3.13 µg/mL		antibacterial activity [3]: high antibacterial activity; MIC ([4]; PCI602, 37°C, 18 hours): 0.78 µg/mL; LD50 [7]: > 100 mg/kg; MIC ([8]; K12ML1629, 18 h): 3.13 µg/mL; MIC ([10]; 37°C, 18 hours): < 0.2 µg/mL; MIC ([12]; Corynebacterium bovis, 1810, 37°C, 18 hours): 1.56 µg/mL; MIC ([14]; NRRLB558, 37°C, 18 hours): < 0.2 µg/mL; MIC (Proteus vulgaris OX 19; OX19, 37°C, 18 hours): 0.78 µg/mL; MIC (Escherichia coli K-12; K12, 37°C, 18 hours): 1.56 µg/mL; MIC ([16]; ATCC10702, 37°C, 18 hours): 1.56 µg/mL; MIC ([17]; 37°C, 18 hours): 0.78 µg/mL; MIC ([18]; ATCC607, 37°C, 18 hours): 0.78 µg/mL; MIC ([19]; 37°C, 18 hours): < 0.2 µg/mL; MIC ([20]; PCI219, 37°C, 18 hours): < 0.2 µg/mL; MIC ([22]; K12ML1410, 37°C, 18 hours): 1.56 µg/mL; antibacterial activity ([23]; gram-negative and gram-positive bacteria sensitive to kanamycins): high antibacterial activity; MIC (Escherichia coli W677; W677, 37°C, 18 hours): 0.78 µg/mL; MIC ([24]; GN315, 37°C, 18 hours): 50 µg/mL
NC[C@@H](O)C(=O)N[C@@H]1C[C@H](N)[C@@H](O[C@H]2O[C@H](CN)[C@@H](O)[C@H](O)[C@H]2O)[C@H](O)[C@H]1O[C@H]1O[C@H](CO)[C@@H](O)[C@H](N)[C@H]1O [1-N-D-isoserylkanamycin]																				the same as those of 1-N-DL-isoserylkanamycin	antibacterial activity relative to the DL-form (racemic form) [23]: the same as those of 1-N-DL-isoserylkanamycin
NC[C@H](O)C(=O)N[C@@H]1C[C@H](N)[C@@H](O[C@H]2O[C@H](CN)[C@@H](O)[C@H](O)[C@H]2O)[C@H](O)[C@H]1O[C@H]1O[C@H](CO)[C@@H](O)[C@H](N)[C@H]1O [1-N-L-isoserylkanamycin]																				the same as those of 1-N-DL-isoserylkanamycin	antibacterial activity relative to the DL-form (racemic form) [23]: the same as those of 1-N-DL-isoserylkanamycin
NC[C@H]1O[C@H](O[C@H]2[C@H](O)[C@@H](O[C@H]3O[C@H](CO)[C@@H](O)[C@H](N)[C@H]3O)[C@H](N)C[C@@H]2N)[C@H](O)C[C@@H]1O [3'-Deoxykanamycin]																					activity against kanamycin-resistant strains [30]: actually effective; activity against Escherichia coli JR66/W677 [31]: inactive; susceptibility to / inactivation by phosphotransferase (phosphotransferase): not susceptible
NC[C@H]1O[C@H](O[C@H]2[C@H](O)[C@@H](O[C@H]3O[C@H](CO)[C@@H](O)[C@H](N)[C@H]3O)[C@H](N)C[C@@H]2N)[C@H](O)[C@@H](O)[C@@H]1O [KM, kanamycin]	6.25 µg/mL (≈ 12.9 µM)	> 100 µg/mL	> 100 µg/mL	100 µg/mL (≈ 206 µM)	12.5 µg/mL (≈ 25.8 µM)	< 0.2 µg/mL	12.5 µg/mL (≈ 25.8 µM)	25 µg/mL (≈ 51.6 µM)	> 100 µg/mL	6.25 µg/mL (≈ 12.9 µM)	1.56 µg/mL (≈ 3.22 µM)	0.78 µg/mL (≈ 1.61 µM)	0.39 µg/mL (≈ 0.805 µM)	> 100 µg/mL	6.25 µg/mL (≈ 12.9 µM)	> 100 µg/mL	50 µg/mL (≈ 103 µM)	3.13 µg/mL (≈ 6.46 µM)	> 100 µg/mL		inactivation by nucleotidyltransferase (nucleotidyltransferase): inactivating; MIC ([4]; PCI602, 18 h): 0.78 µg/mL (≈ 1.61 µM); MIC ([8]; K12ML1629, 37°C, 18 hours): > 100 µg/mL; MIC ([10]; 18 h): < 0.2 µg/mL; MIC ([12]; Corynebacterium bovis, 1810, 18 h): 3.13 µg/mL (≈ 6.46 µM); MIC ([14]; NRRLB558, 18 h): < 0.2 µg/mL; MIC (Proteus vulgaris OX 19; OX19, 18 h): 0.78 µg/mL (≈ 1.61 µM); MIC (Escherichia coli K-12; K12, 18 h): 1.56 µg/mL (≈ 3.22 µM); MIC ([16]; ATCC10702, 18 h): 1.56 µg/mL (≈ 3.22 µM); MIC ([17]; 18 h): 0.78 µg/mL (≈ 1.61 µM); MIC ([18]; ATCC607, 18 h): 0.78 µg/mL (≈ 1.61 µM); MIC ([19]; 18 h): < 0.2 µg/mL; MIC ([20]; PCI219, 18 h): < 0.2 µg/mL; MIC ([22]; K12ML1410, 18 h): 1.56 µg/mL (≈ 3.22 µM); MIC (Escherichia coli W677; W677, 18 h): 1.56 µg/mL (≈ 3.22 µM); MIC ([24]; GN315, 18 h): > 100 µg/mL
